Results published in ChEMBL document CHEMBL4480422, “Alkyl derivatives of 1,3,5-triazine as histamine H4 receptor ligands” (Bioorg Med Chem, 2019).
Activity calls are given as the source filed them.

Columns and labels:
Histamine H4 receptor [1] = target: T1, Histamine H4 receptor (Homo sapiens, UniProt Q9H3N8); assay: Displacement of [3H]-histamine from recombinant human H4 receptor expressed in Sf9 cell membranes co-expressing Galphai2/Gbeta1gamma2
Rattus norvegicus [2] = assay: Anti-inflammatory activity in Wistar (Krf:(WI) WU) rat model of carrageenan-induced paw edema assessed as hind paw volume at 12.5 mg/kg, ip administered as single dose prior to carrageenan challenge and measured after 2 hrs by plethysmometer (reference value: 103%); assay type: functional
Rattus norvegicus [3] = assay: Anti-inflammatory activity in Wistar (Krf:(WI) WU) rat model of carrageenan-induced thermal hyperalgesia assessed as paw withdrawal latency time at 25 mg/kg, ip administered as single dose prior to carrageenan challenge and measured after 1 hr by plantar test (reference value: 4.79 +/- 0.99 s); assay type: functional
Rattus norvegicus [4] = assay: Anti-inflammatory activity in Wistar (Krf:(WI) WU) rat model of carrageenan-induced paw edema assessed as hind paw volume at 25 mg/kg, ip administered as single dose prior to carrageenan challenge and measured after 1 hr by plethysmometer (reference value: 49%); assay type: functional
[5] = Neurotoxicity in Albino Swiss CD-1 mouse assessed as motor impairment at 25 to 75 mg/kg, ip treated 30 mins prior to test by rotarod test; assay type: toxicity, organism-based; conditions: in vivo, 0.5 h
[6] = target: Histamine H1 receptor (Cavia porcellus) (UniProt P31389); assay: Agonist activity at histamine H1 receptor in guinea-pig ileum assessed as induction of contractions after 15 mins; assay type: tissue-based
Histamine H1 receptor (Cavia porcellus), sequence (P31389 whole entry): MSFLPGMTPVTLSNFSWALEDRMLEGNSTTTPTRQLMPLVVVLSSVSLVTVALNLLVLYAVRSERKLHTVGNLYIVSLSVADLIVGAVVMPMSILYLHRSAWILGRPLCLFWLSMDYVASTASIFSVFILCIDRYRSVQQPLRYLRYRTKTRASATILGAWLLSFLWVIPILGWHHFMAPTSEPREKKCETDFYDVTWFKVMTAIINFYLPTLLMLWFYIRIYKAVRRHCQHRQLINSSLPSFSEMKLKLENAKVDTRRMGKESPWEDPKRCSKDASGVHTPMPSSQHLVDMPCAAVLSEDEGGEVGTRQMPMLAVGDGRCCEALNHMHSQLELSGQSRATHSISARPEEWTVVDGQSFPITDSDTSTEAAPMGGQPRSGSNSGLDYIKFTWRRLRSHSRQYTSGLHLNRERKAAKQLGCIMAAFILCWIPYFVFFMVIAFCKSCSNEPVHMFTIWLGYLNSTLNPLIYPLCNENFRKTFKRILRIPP

Rattus norvegicus [7] = assay: Anti-inflammatory activity in Wistar (Krf:(WI) WU) rat model of carrageenan-induced paw edema assessed as hind paw volume at 50 mg/kg, ip administered as single dose prior to carrageenan challenge and measured after 1 hr by plethysmometer (reference value: 49%); assay type: functional
Rattus norvegicus [8] = assay: Anti-inflammatory activity in Wistar (Krf:(WI) WU) rat model of carrageenan-induced paw edema assessed as hind paw volume at 50 mg/kg, ip administered as single dose prior to carrageenan challenge and measured after 2 hrs by plethysmometer (reference value: 103%); assay type: functional
Mus musculus [9] = assay: Effect on spontaneous locomotor activity in Albino Swiss CD-1 mouse assessed as change in number of light beam crossings at 25 to 50 mg/kg, ip treated prior to test and measured for next 30 mins; assay type: ADME, organism-based; conditions: in vivo, 0.5 h
[10] = target: T2, Muscarinic acetylcholine receptor M3 (Cavia porcellus, UniProt Q8VH26); assay: Antagonist activity at muscarinic M3 receptor in guinea-pig ileum assessed as inhibition of carbachol-induced contractions after 15 mins; assay type: tissue-based; conditions: read-out: pA2 (converted)
T2 sequence (Q8VH26 whole entry): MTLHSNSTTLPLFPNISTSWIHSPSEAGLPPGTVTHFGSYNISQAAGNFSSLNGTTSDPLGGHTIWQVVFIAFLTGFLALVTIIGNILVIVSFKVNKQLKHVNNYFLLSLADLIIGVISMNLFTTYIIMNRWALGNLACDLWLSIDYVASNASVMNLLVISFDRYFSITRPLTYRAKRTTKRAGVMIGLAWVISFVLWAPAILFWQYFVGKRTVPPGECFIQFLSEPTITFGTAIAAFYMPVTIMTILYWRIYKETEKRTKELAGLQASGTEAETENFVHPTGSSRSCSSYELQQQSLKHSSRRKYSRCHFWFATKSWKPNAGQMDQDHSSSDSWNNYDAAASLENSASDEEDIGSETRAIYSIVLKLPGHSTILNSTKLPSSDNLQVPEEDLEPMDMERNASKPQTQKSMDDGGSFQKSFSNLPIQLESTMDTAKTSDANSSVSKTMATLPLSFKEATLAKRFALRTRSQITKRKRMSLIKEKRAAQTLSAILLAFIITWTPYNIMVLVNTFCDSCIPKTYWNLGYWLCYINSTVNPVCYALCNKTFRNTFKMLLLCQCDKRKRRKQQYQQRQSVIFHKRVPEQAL

Mus musculus [11] = assay: Antinociceptive activity in formalin-induced nociception pain Albino Swiss CD-1 mouse model assessed as reduction in time spent licking or biting formalin injected right hind paw in early phase at 75 mg/kg, ip pretreated followed by formalin injection and measured up to 5 mins; assay type: functional, organism-based
Rattus norvegicus [12] = assay: Anti-inflammatory activity in Wistar (Krf:(WI) WU) rat model of carrageenan-induced thermal hyperalgesia assessed as paw withdrawal latency time at 50 mg/kg, ip administered as single dose prior to carrageenan challenge and measured after 2 hrs by plantar test (reference value: 4.03 +/- 0.7 s); assay type: functional
Rattus norvegicus [13] = assay: Anti-inflammatory activity in Wistar (Krf:(WI) WU) rat model of carrageenan-induced mechanical hyperalgesia assessed as increase in paw withdrawal threshold at 12.5 to 50 mg/kg, ip administered as single dose prior to carrageenan challenge and measured after 3 hrs; assay type: functional, organism-based
Rattus norvegicus [14] = assay: Anti-inflammatory activity in Wistar (Krf:(WI) WU) rat model of carrageenan-induced paw edema assessed as hind paw volume at 25 mg/kg, ip administered as single dose prior to carrageenan challenge and measured after 2 hrs by plethysmometer (reference value: 103%); assay type: functional
Rattus norvegicus [15] = assay: Anti-inflammatory activity in Wistar (Krf:(WI) WU) rat model of carrageenan-induced paw edema assessed as hind paw volume at 50 mg/kg, ip administered as single dose prior to carrageenan challenge and measured after 3 hrs by plethysmometer (reference value: 130%); assay type: functional
Rattus norvegicus [16] = assay: Anti-inflammatory activity in Wistar (Krf:(WI) WU) rat model of carrageenan-induced paw edema assessed as hind paw volume at 12.5 mg/kg, ip administered as single dose prior to carrageenan challenge and measured after 3 hrs by plethysmometer (reference value: 130%); assay type: functional
Rattus norvegicus [17] = assay: Anti-inflammatory activity in Wistar (Krf:(WI) WU) rat model of carrageenan-induced paw edema assessed as hind paw volume at 25 mg/kg, ip administered as single dose prior to carrageenan challenge and measured after 3 hrs by plethysmometer (reference value: 130%); assay type: functional
Histamine H4 receptor [18] = target: T1, Histamine H4 receptor; conditions: Sf9
Rattus norvegicus [19] = assay: Anti-inflammatory activity in Wistar (Krf:(WI) WU) rat model of carrageenan-induced thermal hyperalgesia assessed as paw withdrawal latency time at 25 mg/kg, ip administered as single dose prior to carrageenan challenge and measured after 3 hrs by plantar test (reference value: 3.03 +/- 0.4 s); assay type: functional
Rattus norvegicus [20] = assay: Anti-inflammatory activity in Wistar (Krf:(WI) WU) rat model of carrageenan-induced paw edema assessed as reduction in hind paw volume administered as single ip dose prior to carrageenan challenge and measured after 1 to 3 hrs by plethysmometer; assay type: functional, organism-based
Mus musculus [21] = assay: Antinociceptive activity in formalin-induced nociception pain Albino Swiss CD-1 mouse model assessed as reduction in time spent licking or biting formalin injected right hind paw in inflammatory phase at 50 mg/kg, ip pretreated followed by formalin injection and measured after 15 to 30 mins relative to control; assay type: functional; design: scale not given: the % may be the effect or the level left
Rattus norvegicus [22] = assay: Anti-inflammatory activity in Wistar (Krf:(WI) WU) rat model of carrageenan-induced thermal hyperalgesia assessed as paw withdrawal latency time at 50 mg/kg, ip administered as single dose prior to carrageenan challenge and measured after 1 hr by plantar test (reference value: 4.79 +/- 0.99 s); assay type: functional
Histamine H4 receptor [23] = target: T1, Histamine H4 receptor; assay: Antagonist activity at recombinant human H4 receptor expressed in CHOK1 cells co-expressing Galpha16/aequorin assessed as inhibition of histamine-induced intracellular calcium flux preincubated for 30 mins followed by histamine addition and measured for 30 secs in presence of coelenterazine by luminescence assay; assay type: functional, cell-based
Mus musculus [24] = assay: Antinociceptive activity in ip dosed formalin-induced nociception pain Albino Swiss CD-1 mouse model assessed as reduction in time spent licking or biting formalin injected right hind paw in inflammatory phase pretreated followed by formalin injection and measured after 15 to 30 mins; assay type: functional; conditions: Swiss CD-1, ip
Histamine H4 receptor [25] = target: T1, Histamine H4 receptor; assay: Agonist activity at recombinant human H4 receptor expressed in Sf9 cell membranes co-expressing Galphai2/Gbeta1gamma2 measured after 1 hr in presence of [35S]GTPgammaS by liquid scintillation counting method; assay type: functional
Mus musculus [26] = assay: Effect on spontaneous locomotor activity in Albino Swiss CD-1 mouse assessed as decrease in number of light beam crossings at 75 mg/kg, ip treated prior to test and measured for next 30 mins relative to control; assay type: ADME, organism-based; design: scale not given: the % may be the effect or the level left; conditions: in vivo, 0.5 h
Rattus norvegicus [27] = assay: Anti-inflammatory activity in Wistar (Krf:(WI) WU) rat model of carrageenan-induced paw edema assessed as hind paw volume at 12.5 mg/kg, ip administered as single dose prior to carrageenan challenge and measured after 1 hr by plethysmometer (reference value: 49%); assay type: functional
Rattus norvegicus [28] = assay: Anti-inflammatory activity in Wistar (Krf:(WI) WU) rat model of carrageenan-induced thermal hyperalgesia assessed as paw withdrawal latency time at 50 mg/kg, ip administered as single dose prior to carrageenan challenge and measured after 3 hrs by plantar test (reference value: 3.03 +/- 0.4 s); assay type: functional
Rattus norvegicus [29] = assay: Anti-inflammatory activity in Wistar (Krf:(WI) WU) rat model of carrageenan-induced thermal hyperalgesia assessed as paw withdrawal latency time at 25 mg/kg, ip administered as single dose prior to carrageenan challenge and measured after 2 hrs by plantar test (reference value: 4.03 +/- 0.7 s); assay type: functional
Histamine H4 receptor [30] = target: T1, Histamine H4 receptor; assay: Agonist activity at recombinant human H4 receptor expressed in CHOK1 cells co-expressing Galpha16/aequorin assessed as increase in intracellular calcium flux incubated for 1 hr measured for 30 secs in presence of coelenterazine by luminescence assay; assay type: functional, cell-based
[31] = target: T2, Muscarinic acetylcholine receptor M3; assay: Agonist activity at muscarinic M3 receptor in guinea-pig ileum assessed as induction of contractions after 15 mins; assay type: tissue-based; conditions: 0.25 h
Histamine H1 receptor = Histamine H1 receptor (Cavia porcellus, UniProt P31389); assay: Antagonist activity at histamine H1 receptor in guinea-pig ileum assessed as inhibition of histamine-induced contractions after 15 mins; assay type: tissue-based; conditions: read-out: pA2 (converted)
Histamine H1 receptor, sequence (P31389 whole entry): as the sequence (P31389 whole entry) above

Mus musculus [32] = assay: Antinociceptive activity in formalin-induced nociception pain Albino Swiss CD-1 mouse model assessed as reduction in time spent licking or biting formalin injected right hind paw in early phase at 25 mg/kg, ip pretreated followed by formalin injection and measured up to 5 mins; assay type: functional, organism-based
Mus musculus [33] = assay: Antinociceptive activity in formalin-induced nociception pain Albino Swiss CD-1 mouse model assessed as reduction in time spent licking or biting formalin injected right hind paw in inflammatory phase at 25 mg/kg, ip pretreated followed by formalin injection and measured after 15 to 30 mins relative to control; assay type: functional; design: scale not given: the % may be the effect or the level left
Rattus norvegicus [34] = assay: Anti-inflammatory activity in Wistar (Krf:(WI) WU) rat model of carrageenan-induced mechanical hyperalgesia assessed as increase in paw withdrawal threshold at 25 mg/kg, ip administered as single dose prior to carrageenan challenge and measured after 3 hrs; assay type: functional, organism-based

T1 sequence (Q9H3N8 whole entry): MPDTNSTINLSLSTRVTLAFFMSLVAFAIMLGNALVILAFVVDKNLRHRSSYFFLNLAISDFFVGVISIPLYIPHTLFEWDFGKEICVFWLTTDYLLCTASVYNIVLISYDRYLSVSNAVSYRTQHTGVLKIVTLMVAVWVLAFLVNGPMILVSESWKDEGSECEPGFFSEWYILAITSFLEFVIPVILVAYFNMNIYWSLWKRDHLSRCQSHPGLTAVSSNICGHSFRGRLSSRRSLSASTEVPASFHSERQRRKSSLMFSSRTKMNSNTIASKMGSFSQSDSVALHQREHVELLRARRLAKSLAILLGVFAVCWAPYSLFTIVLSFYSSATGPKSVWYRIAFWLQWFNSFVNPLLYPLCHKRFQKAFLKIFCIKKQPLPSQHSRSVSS

Compound: CN1CCN(c2nc(N)nc(C(C)(C)C)n2)CC1
- Ki (Histamine H4 receptor [1]): 1080 nM

Compound: CC(C)=Cc1nc(N)nc(N2CCN(C)CC2)n1
- Ki (Histamine H4 receptor [1]): 470 nM

Compound: CN1CCN(c2nc(N)nc(CC3CCCCC3)n2)CC1
- Activity (Rattus norvegicus [2]): 53.77%
- Time (Rattus norvegicus [3]): <=10.49 s
- Activity (Rattus norvegicus [4]): 19.56%
- Activity [5]: Non-Toxic
- Activity [6]: inactive
- Activity (Rattus norvegicus [7]): 8.69%
- Activity (Rattus norvegicus [8]): 21.73%
- Activity (Mus musculus [9]): Non-Toxic
- Kb [10]: 2040 nM
- Activity (Mus musculus [11]): Active
- Time (Rattus norvegicus [12]): 10.05 s
- Activity (Rattus norvegicus [13]): Active
- Activity (Rattus norvegicus [14]): 41.3%
- Activity (Rattus norvegicus [15]): 57.37%
- Activity (Rattus norvegicus [16]): 83.96%
- Activity (Rattus norvegicus [17]): 84.3%
- pKb (Histamine H4 receptor [18]): 6.67 to 6.7
- Time (Rattus norvegicus [19]): 7.06 s
- Activity (Rattus norvegicus [20]): Dose-dependent effect
- Activity (Mus musculus [21]): 59.83%
- Time (Rattus norvegicus [22]): 9.43 s
- IC50 (Histamine H4 receptor [23]): 32 nM
- ED50 (Mus musculus [24]): 54.8 mg/kg
- Activity (Histamine H4 receptor [25]): inactive
- Activity (Mus musculus [26]): 23.84%
- Activity (Rattus norvegicus [27]): 25.47%
- Time (Rattus norvegicus [28]): 9.03 s
- Time (Rattus norvegicus [29]): 9.78 s
- Activity (Histamine H4 receptor [30]): inactive
- Activity [31]: Not Active
- Ki (Histamine H4 receptor [1]): 160 nM
- Kb (Histamine H1 receptor): 1230 nM

Compound: CN1CCN(c2nc(N)nc(CCCC3CCCCC3)n2)CC1
- Ki (Histamine H4 receptor [1]): > 10000 nM

Compound: CN1CCN(c2nc(N)nc(CC(C)(C)C)n2)CC1
- Ki (Histamine H4 receptor [1]): 247 nM

Compound: CCC(C)c1nc(N)nc(N2CCN(C)CC2)n1 (stereo not given)
- Ki (Histamine H4 receptor [1]): 725 nM

Compound: Cc1nc(N)nc(N2CCN(C)CC2)n1
- Ki (Histamine H4 receptor [1]): 2660 nM

Compound: CC(C)c1nc(N)nc(N2CCN(C)CC2)n1
- Ki (Histamine H4 receptor [1]): 277 nM

Compound: CN1CCN(c2nc(N)nc(CCC3CCCCC3)n2)CC1
- Ki (Histamine H4 receptor [1]): 2850 nM

Compound: CCCc1nc(N)nc(N2CCN(C)CC2)n1
- IC50 (Histamine H4 receptor [23]): 265 nM
- Activity (Histamine H4 receptor [30]): inactive
- Ki (Histamine H4 receptor [1]): 185 nM

Compound: COCc1nc(N)nc(N2CCN(C)CC2)n1
- Ki (Histamine H4 receptor [1]): > 10000 nM

Compound: CC(C)Cc1nc(N)nc(N2CCN(C)CC2)n1
- Ki (Histamine H4 receptor [1]): 529 nM

Compound: CCc1nc(N)nc(N2CCN(C)CC2)n1
- Ki (Histamine H4 receptor [1]): 812 nM

Compound: CN1CCN(C(=O)c2cc3cc(Cl)ccc3[nH]2)CC1 [JNJ-7777120]
- Activity (Mus musculus [32]): inactive
- Time (Rattus norvegicus [3]): 9.14 s
- Activity (Rattus norvegicus [4]): 22.11%
- Activity (Rattus norvegicus [14]): 47.4%
- Activity (Rattus norvegicus [17]): 63.66%
- Activity (Mus musculus [33]): 60.68%
- Time (Rattus norvegicus [29]): 8.39 s
- Activity (Rattus norvegicus [34]): Active

Compound: CCC(CC)c1nc(N)nc(N2CCN(C)CC2)n1
- Ki (Histamine H4 receptor [1]): 1330 nM
